The source of these data is patent US11040981B2, “Pyrrolotriazine compounds and methods of inhibiting TAM kinases” (Syros Pharmaceuticals, Inc., priority 2017, dated 2021).

One assay concerns the target T1, TYRO3 (Homo sapiens, UniProt Q06418).
T1 sequence (Q06418 41-890): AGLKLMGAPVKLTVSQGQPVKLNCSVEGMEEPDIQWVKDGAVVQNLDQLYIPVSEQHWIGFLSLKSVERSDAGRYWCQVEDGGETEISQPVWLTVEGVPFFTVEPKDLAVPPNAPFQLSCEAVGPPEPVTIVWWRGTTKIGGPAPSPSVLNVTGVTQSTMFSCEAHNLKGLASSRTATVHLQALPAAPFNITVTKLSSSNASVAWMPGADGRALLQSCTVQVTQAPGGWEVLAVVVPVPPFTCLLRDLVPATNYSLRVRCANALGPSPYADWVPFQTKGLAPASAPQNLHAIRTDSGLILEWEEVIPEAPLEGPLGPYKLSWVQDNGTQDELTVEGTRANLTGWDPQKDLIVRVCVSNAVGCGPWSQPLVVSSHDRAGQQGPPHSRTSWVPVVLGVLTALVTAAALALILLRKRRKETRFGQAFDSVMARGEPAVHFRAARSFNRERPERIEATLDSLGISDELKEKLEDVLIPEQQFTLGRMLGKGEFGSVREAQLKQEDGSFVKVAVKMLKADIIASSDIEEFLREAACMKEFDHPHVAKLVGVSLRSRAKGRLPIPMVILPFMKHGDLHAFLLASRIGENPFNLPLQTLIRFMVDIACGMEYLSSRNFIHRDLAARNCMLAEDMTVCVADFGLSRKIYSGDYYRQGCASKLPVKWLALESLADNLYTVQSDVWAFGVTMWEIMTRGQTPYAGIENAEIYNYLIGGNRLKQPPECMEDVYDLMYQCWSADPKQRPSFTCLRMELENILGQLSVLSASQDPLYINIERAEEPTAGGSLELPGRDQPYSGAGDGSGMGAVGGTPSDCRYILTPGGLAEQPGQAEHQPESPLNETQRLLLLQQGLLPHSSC
The assay is described as follows: TR-FRET kinase activity assay, TYRO3. It counts as biochemical. The following applies: ATP at Km, 60 minutes. In short, it runs like this: (§1)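 IC50 reflects the drop in TR-FRET between Eu anti-phosphotyrosine antibody and labelled peptide after a 60-minute room-temperature reaction. Buffer was 50 mM HEPES pH 7.5 with 10 mM MgCl2, 1 mM EGTA, 0.01% Brij 35 and 1 mM DTT, with ATP at Km per enzyme and EDTA quench.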

Another assay addresses T2, AXL (Homo sapiens, UniProt P30530).
T2 sequence (P30530 26-894): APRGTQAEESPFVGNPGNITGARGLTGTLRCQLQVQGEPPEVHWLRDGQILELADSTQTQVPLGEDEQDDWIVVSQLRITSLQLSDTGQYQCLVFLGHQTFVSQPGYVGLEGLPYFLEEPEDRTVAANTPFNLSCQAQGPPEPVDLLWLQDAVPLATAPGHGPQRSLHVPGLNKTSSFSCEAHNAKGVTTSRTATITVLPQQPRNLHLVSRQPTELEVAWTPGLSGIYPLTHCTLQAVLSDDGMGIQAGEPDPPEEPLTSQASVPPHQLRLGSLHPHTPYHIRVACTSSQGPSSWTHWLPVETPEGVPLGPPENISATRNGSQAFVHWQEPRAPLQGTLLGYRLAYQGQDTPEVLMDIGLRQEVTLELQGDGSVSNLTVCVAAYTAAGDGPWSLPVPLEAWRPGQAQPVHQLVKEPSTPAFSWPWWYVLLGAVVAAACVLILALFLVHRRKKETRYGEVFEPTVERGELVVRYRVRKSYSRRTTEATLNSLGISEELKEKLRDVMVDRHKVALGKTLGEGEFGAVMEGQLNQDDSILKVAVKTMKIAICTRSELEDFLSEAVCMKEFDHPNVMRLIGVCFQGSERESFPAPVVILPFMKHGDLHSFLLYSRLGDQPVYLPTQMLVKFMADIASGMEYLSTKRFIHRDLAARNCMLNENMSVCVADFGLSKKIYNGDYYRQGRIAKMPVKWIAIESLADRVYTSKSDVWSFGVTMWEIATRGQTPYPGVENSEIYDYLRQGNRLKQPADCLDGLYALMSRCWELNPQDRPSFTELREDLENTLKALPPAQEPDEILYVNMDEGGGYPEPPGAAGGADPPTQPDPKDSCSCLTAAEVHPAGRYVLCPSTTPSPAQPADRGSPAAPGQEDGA
Put plainly: TR-FRET kinase activity assay, AXL. The assay is classed as biochemical. As to conditions: ATP at Km, 60 minutes. In short, it runs like this: as §1

SMILES strings stand for the structures.

On to `COC[C@H](C)Nc1ncc2c(-c3cnn(C(C)(C)c4nnc(C(F)F)o4)c3)cc([C@H]3CC[C@H](O)CC3)n2n1` [Compound 599], for which the IC50 at TYRO3 and against AXL was not above 100 nM throughout.

With `COC[C@H](C)Nc1ncc2c(-c3cnn(C(C)(C)c4nnco4)c3)cc([C@H]3CC[C@H](O)CC3)n2n1` [Compound 604], the IC50 at TYRO3 and on AXL was not above 100 nM each time.

`COCC(C)Nc1ncc2c(-c3ccc(C(C)N4CCOCC4)cc3)cc(C3CCC(O)CC3)n2n1` (mixture of isomers) [Compound 180]: the results for the half-inhibitory concentration (IC50) against TYRO3 and against AXL were not above 100 nM and 100 to 1000 nM, respectively.

As for `COC[C@H](C)N(C)c1ncc2c(-c3ccnc(C)c3)cc([C@H]3CC[C@H](O)CC3)n2n1` [Compound 175, (trans)-4-(2-(((S)-1-methoxypropan-2-yl)(methyl)amino)-5-(2-methylpyridin-4-yl)pyrrolo[2,1-f][1,2,4]triazin-7-yl)cyclohexanol], the IC50 against TYRO3 and against AXL was 1000 to 10000 nM in each case.

For `[2H]C([2H])([2H])OCC(C)Nc1ncc2c(-c3ccnc(N4CCOCC4)c3)cc(C3CCC(O)CC3)n2n1` (stereo not shown) [Compound 629], the IC50 at TYRO3 and against AXL was not above 100 nM in each case.

For `COC[C@H](C)Nc1ncc2c([C@H]3CC[C@H](C(=O)N4CCN(C)CC4)CC3)cc([C@H]3CC[C@H](O)CC3)n2n1` [Compound 606], the concentration for half-maximal inhibition (IC50) on TYRO3 and against AXL was not above 100 nM in each case.

For the molecule `COC[C@H](C)Nc1ncc2c(-c3cnn(CC(C)C)c3)cc([C@H]3CC[C@H](O)CC3)n2n1` [Compound 167], the IC50 at TYRO3 and against AXL was not above 100 nM throughout.

On to `COC[C@H](C)Nc1ncc2c(-c3cnn(Cc4nnc(C)s4)c3)cc([C@H]3CC[C@H](O)CC3)n2n1` [Compound 596], for which the IC50 at TYRO3 and on AXL was not above 100 nM in each case.

On to `COC[C@H](C)Nc1ncc2c(-c3ccc(CN4CCOCC4)cc3)cc([C@H]3CC[C@@H](O)CC3)n2n1` [Compound 163, (cis)-4-(2-(((S)-1-methoxypropan-2-yl)amino)-5-(4-(morpholinomethyl)phenyl)pyrrolo[2,1-f][1,2,4]triazin-7-yl)cyclohexanol], for which the concentration for half-maximal inhibition (IC50) against TYRO3 and against AXL was not above 100 nM each time.

On to `COC[C@H](C)Nc1ncc2c(-c3ccnc(C(C)(C)O)c3)cc([C@H]3CC[C@H](O)CC3)n2n1` [Compound 619], for which the IC50 against TYRO3 and against AXL was not above 100 nM each time.

As for `COC[C@H](C)Nc1ncc2c(N3CCCC3=O)cc([C@H]3CC[C@H](O)CC3)n2n1` [Compound 177], the values for the IC50 on TYRO3 and on AXL were 100 to 1000 nM and 1000 to 10000 nM, respectively.

As for `COC[C@H](C)Nc1ncc2c(-c3cnn(CCN4CCOCC4)c3)cc([C@H]3CC[C@H](O)CC3)n2n1` [Compound 153], the IC50 at TYRO3 is not above 100 nM; against AXL it was 100 to 1000 nM.

Regarding `CNC(=O)c1ccc(-c2cc([C@H]3CC[C@H](O)CC3)n3nc(N[C@@H](C)COC)ncc23)cn1` [Compound 147], the IC50 against TYRO3 was not above 100 nM; on AXL, 100 to 1000 nM.

As to `COC[C@H](C)Nc1ncc2c(-c3cnn(C(C)(C)c4nnc(C(F)(F)F)o4)c3)cc([C@H]3CC[C@H](O)CC3)n2n1` [Compound 603], the IC50 on TYRO3 and at AXL was not above 100 nM each time.

In the case of `C[C@@H](COC(F)F)Nc1ncc2c(-c3ccnc(N4CCO[C@@H](C(C)(C)O)C4)c3)cc([C@H]3CC[C@H](O)CC3)n2n1` [Compound 597], the IC50 against TYRO3 and at AXL was not above 100 nM in each case.

For the molecule `COC[C@H](C)Nc1ncc2c(-c3cnn(C)c3)cc([C@H]3CC[C@H](O)CC3)n2n1` [Compound 152], the concentration for half-maximal inhibition (IC50) against TYRO3 and at AXL was not above 100 nM throughout.

Regarding `COC[C@H](C)Nc1ncc2c(-c3ccc(C4(N5CCOCC5)CC4)cc3)cc([C@H]3CC[C@H](O)CC3)n2n1` [Compound 184], the values for the IC50 against TYRO3 and against AXL were not above 100 nM and 100 to 1000 nM, respectively.

With `COC[C@H](C)Nc1ncc2c(-c3cnn(C(C)(C)c4nnc([C@@H]5CCCO5)o4)c3)cc([C@H]3CC[C@H](O)CC3)n2n1` [Compound 601], the half-inhibitory concentration (IC50) on TYRO3 and at AXL was not above 100 nM in each case.

For the molecule `COCC(C)Nc1ncc2c(-c3cccc(C(C)N4CCCC4)c3)cc(C3CCC(O)CC3)n2n1` (stereo not shown) [Compound 158], the 50% inhibitory concentration (IC50) against TYRO3 and against AXL was not above 100 nM in each case.

Take `COC[C@H](C)Nc1ncc2c(-c3cccc(CN4CCCC4)c3)cc([C@H]3CC[C@H](O)CC3)n2n1` [Compound 179]: the half-inhibitory concentration (IC50) against TYRO3 was not above 100 nM; at AXL it was 100 to 1000 nM.

Turning to `COC[C@H](C)Nc1ncc2c(-c3cnn(C4COC4)c3)cc([C@H]3CC[C@@](O)(C(C)C)CC3)n2n1` [Compound 618], the IC50 at TYRO3 and at AXL was not above 100 nM throughout.

`COCC(C)Nc1ncc2c(-c3ccc(C(C)N4CCOCC4)cc3)cc(C3CCC(O)CC3)n2n1` (stereo not shown) [Compound 182]: the IC50 on TYRO3 and on AXL was not above 100 nM each time.

With `CCOC(=O)Cn1cc(-c2cc([C@H]3CC[C@H](O)CC3)n3nc(N[C@@H](C)COC)ncc23)cn1` [Compound 159], the IC50 against TYRO3 and at AXL was not above 100 nM throughout.

As for `COCC(C)Nc1ncc2c(-c3ccc(C(C)N4CCCC4)cc3)cc(C3CCC(O)CC3)n2n1` (stereo not shown) [Compound 164], the IC50 against TYRO3 and at AXL was not above 100 nM in each case.

As to `COCC(C)Nc1ncc2c(-c3ccc(C4(C(=O)N5CCS(=O)(=O)CC5)CC4)cc3)cc(C3CCC(O)CC3)n2n1` (stereo not shown) [Compound 172], the IC50 against TYRO3 and against AXL was not above 100 nM in each case.

In the case of `COC[C@H](C)N(C)c1ncc2c(-c3ccnc(C)c3)cc([C@H]3CC[C@H](OC)CC3)n2n1` [Compound 176, 7-((trans)-4-methoxycyclohexyl)-N-((S)-1-methoxypropan-2-yl)-N-methyl-5-(2-methylpyridin-4-yl)pyrrolo[2,1-f][1,2,4]triazin-2-amine], the IC50 against TYRO3 and at AXL was 1000 to 10000 nM throughout.

In the case of `CC(CC#N)Nc1ncc2c(-c3ccc(CN4CCN(C)CC4)cc3)cc(C3CCC(O)CC3)n2n1` (stereo not shown) [Compound 145], the IC50 on TYRO3 and on AXL was not above 100 nM each time.

With `CCC1(O)CCC(c2cc(-c3cnn(C4COC4)c3)c3cnc(NC(C)COC)nn23)CC1` (stereo not shown) [Compound 615], the IC50 at TYRO3 and at AXL was not above 100 nM each time.

In the case of `COC[C@H](C)Nc1ncc2c(-c3ccc(CN4CCN(C)CC4)cc3)cc([C@H]3CC[C@@H](O)CC3)n2n1` [Compound 155], the IC50 against TYRO3 and against AXL was not above 100 nM throughout.

`C[C@@H](CC(F)(F)F)Nc1ncc2c(-c3cnn(C(C)(C)C(=O)N4CC5(COC5)C4)c3)cc([C@H]3CC[C@H](O)CC3)n2n1` [Compound 608]: the IC50 at TYRO3 and at AXL was not above 100 nM each time.

Consider `COC[C@H](C)Nc1ncc2c(-c3cnn(CC(=O)NS(C)(=O)=O)c3)cc([C@H]3CC[C@H](O)CC3)n2n1` [Compound 174], for which the IC50 was not above 100 nM on TYRO3 and 100 to 1000 nM at AXL.

As for `CCCCC[C@H](C)Nc1ncc2c(-c3ccc(S(=O)(=O)N4CCOCC4)cc3)cc([C@H]3CC[C@H](O)CC3)n2n1` [Compound 102, (1S,4r)-4-(2-((S)-heptan-2-ylamino)-5-(4-(morpholinosulfonyl)phenyl)pyrrolo[2,1-f][1,2,4]triazin-7-yl)cyclohexanol], the 50% inhibitory concentration (IC50) was not above 100 nM on TYRO3 and 100 to 1000 nM at AXL.
